From PMC9779571, “Guanidine Derivatives Containing the Chalcone Skeleton Are Potent Antiproliferative Compounds against Human Leukemia Cells” (International Journal of Molecular Sciences, 2022)
Values joined by “and” are separate entries in the source; they are usually repeats but may differ in a detail not shown here. Equal entries are not always repeated.

How the values were obtained:
U-937/Bcl-2 cells = assay: MTT cytotoxicity assay, U-937/Bcl-2; format: cell-based, human; conditions: Homo sapiens, U-937, 72 h, means ± SEM
From the text: (§1) U-937, HL-60, MOLT-3, NALM-6, and SK-MEL-1 cells were from DSMZ (German Collection of Microorganisms and Cell Cultures, Braunschweig, Germany). U-937/Bcl-2 cells were kindly provided by Dr. Jacqueline Bréard (INSERM U749, Faculté de Pharmacie Paris-Sud, Châtenay-Malabry, France). The U-937 is a pro-monocytic, human promyelocytic leukemia cell line that was isolated from a histiocytic lymphoma. HL-60 is a human acute myeloid leukemia cell line. MOLT-3 is a human acute lymphoblastic leukemia cell line. NALM-6 is a human B cell precursor leukemia. SK-MEL-1 is a human melanoma cell line growing singly or in clumps (occasional giant, polynucleated cell) in suspension. Cells were cultured in RPMI 1640 medium containing 10% (v/v) heat-inactivated fetal bovine serum, 100 μg/mL streptomycin, and 100 U/mL penicillin, incubated at 37 °C in a humidified atmosphere containing 5% CO2 as described. The doubling times of the cell lines were 24 h in HL-60, 30 h in U-937, U-937/Bcl-2, 40 h in MOLT-3 and NALM-6, and several days in SK-MEL-1 cells. Human peripheral blood mononuclear cells (PBMC) were isolated from heparin-anticoagulated blood of healthy volunteers by centrifugation with Ficoll-Paque Plus (GE Healthcare Bio-Sciences AB, Uppsala, Sweden). PBMC were also stimulated with phytohemagglutinin (2 µg/mL) for 48 h before the experimental treatment. The trypan blue exclusion method was used for counting the cells by a hemocytometer with 95% viability in all the experiments. Compounds were dissolved in dimethyl sulfoxide (DMSO) and kept under dark conditions at 25 °C. […] The cytotoxicity of the synthetic compounds was evaluated by colorimetric 3-(4,5-dimethyl-2-thiazolyl-)-2,5-diphenyl-2H-tetrazolium bromide (MTT) assay as previously described. Briefly, cells (5000 per well) were incubated with increasing concentrations of compounds for 72 h into a 96-well plate. Then, the supernatants were removed and 0.5 mg/mL MTT was added and incubated for 4 h at 37 °C. Sodium dodecyl sulfate (10% w/v) in 0.05 M HCl was added to solubilize the reaction products and the absorbance was measured at 570 nm with a reference wavelength of […] using an ELISA reader (Bio-Rad, Hercules, CA, USA). The IC50 values (concentrations inducing a 50% inhibition of cell viability) were determined graphically for each experiment by a nonlinear regression using the curve fitting routine implemented within the software Prism 5.0 (GraphPad, La Jolla, CA, USA).

SK-MEL-1 cells = assay: MTT cytotoxicity assay, SK-MEL-1; format: cell-based, human; conditions: Homo sapiens, SK-MEL-1, 72 h, means ± SEM
From the text: as §1

U-937 cells = assay: MTT cytotoxicity assay, U-937; format: cell-based; conditions: Homo sapiens, U-937, 72 h, means ± SEM
From the text: as §1

MOLT-3 cells = assay: MTT cytotoxicity assay, MOLT-3; format: cell-based, human; conditions: Homo sapiens, MOLT-3, 72 h, means ± SEM
From the text: as §1

NALM-6 cells = assay: MTT cytotoxicity assay, NALM-6; format: cell-based, human; conditions: for IC50: Homo sapiens, NALM-6, 72 h, 72 h, MTT, means ± SEM
From the text: as §1

HL-60 cells = assay: MTT cytotoxicity assay, HL-60; format: cell-based; conditions: Homo sapiens, HL-60, 72 h, means ± SEM
From the text: as §1

U-937 leukemia cells = assay: Cell cycle and sub-G1 analysis by flow cytometry (propidium iodide); format: cell-based, human; conditions: 24 h; for fold increase of sub-G1 cells over control / %G1 / %G2-M / %S / %Sub-G1: 10 µM; for fold increase of sub-G1 cells over control: U-937; for %G1 / %G2-M / %S / %Sub-G1: U-937, means ± S.E.; for cell cycle arrest: U-937, 10 µM
Method: Cells (2.5 × 10^5) were centrifuged for 10 min at 500× g, washed with cold PBS, fixed with ice-cold 75% ethanol and stored at −20 °C overnight. Samples were then centrifuged at 500× g for 10 min at 4 °C, washed with PBS, resuspended in 200 μL of PBS containing 100 μg/mL RNase and 50 μg/mL propidium iodide and incubated for 1 h in the dark. The DNA content was analyzed by flow cytometry with a BD FACSVerse^TM cytometer (BD Biosciences, San Jose, CA, USA). Apoptosis was also evaluated by flow cytometric analysis of double-staining annexin V-FITC and propidium iodide cells as previously described.

[1] = system: six human cancer cell lines; assay: MTT cytotoxicity assay, all cell lines assayed (summary statements); format: cell-based; conditions: 72 h, MTT
From the text: U-937, HL-60, MOLT-3, NALM-6, and SK-MEL-1 cells were from DSMZ (German Collection of Microorganisms and Cell Cultures, Braunschweig, Germany). U-937/Bcl-2 cells were kindly provided by Dr. Jacqueline Bréard (INSERM U749, Faculté de Pharmacie Paris-Sud, Châtenay-Malabry, France). The U-937 is a pro-monocytic, human promyelocytic leukemia cell line that was isolated from a histiocytic lymphoma. HL-60 is a human acute myeloid leukemia cell line. MOLT-3 is a human acute lymphoblastic leukemia cell line. NALM-6 is a human B cell precursor leukemia. SK-MEL-1 is a human melanoma cell line growing singly or in clumps (occasional giant, polynucleated cell) in suspension. Cells were cultured in RPMI 1640 medium containing 10% (v/v) heat-inactivated fetal bovine serum, 100 μg/mL streptomycin, and 100 U/mL penicillin, incubated at 37 °C in a humidified atmosphere containing 5% CO2 as described. […] The cytotoxicity of the synthetic compounds was evaluated by colorimetric 3-(4,5-dimethyl-2-thiazolyl-)-2,5-diphenyl-2H-tetrazolium bromide (MTT) assay as previously described. […] Sodium dodecyl sulfate (10% w/v) in 0.05 M HCl was added to solubilize the reaction products and the absorbance was measured at 570 nm with a reference wavelength of […] using an ELISA reader (Bio-Rad, Hercules, CA, USA). […]

SMILES	IC50 (U-937/Bcl-2 cells) [µM]	IC50 (SK-MEL-1 cells) [µM]	IC50 (U-937 cells) [µM]	IC50 (MOLT-3 cells) [µM]	IC50 (NALM-6 cells) [µM]	IC50 (HL-60 cells) [µM]	fold increase of sub-G1 cells over control (U-937 leukemia cells)	%G1 (U-937 leukemia cells) [%]	%G2-M (U-937 leukemia cells)	%S (U-937 leukemia cells) [%]	%Sub-G1 (U-937 leukemia cells)	cell cycle arrest (U-937 leukemia cells)	cytotoxicity against the cancer cell lines assayed [1]	increase in cytotoxicity on substitution of p-tosyl-sulfonyl group (6b) by phenyl group (NALM-6 cells; NALM-6, IC50 ratio 6b vs 6h)
[N-]=[N+]=Nc1ccc(/C=C/C(=O)c2c(O)cccc2OCc2ccccc2)cc1 [Compound 3]	> 30	> 30	> 30	7.4 ± 0.4	11.6 ± 1.6	> 30	–	–	–	–	–	–	–	–
Cc1ccc(S(=O)(=O)NC(=Nc2ccc(/C=C/C(=O)c3c(O)cccc3OCc3ccccc3)cc2)NC(C)C)cc1 [Compound 6a]	2.9 ± 0.2	> 30	11.4 ± 6.5	2.9 ± 1.1	2.9 ± 0.5	3.7 ± 1.6	–	–	–	–	–	–	–	–
Cc1ccc(S(=O)(=O)NC(=Nc2ccc(/C=C/C(=O)c3c(O)cccc3OCc3ccccc3)cc2)N(C(C)C)C(C)C)cc1 [Compound 6b]	11.7 ± 7	> 30	18.5 ± 9.6	2 ± 0.7	27 ± 0.8	20.5 ± 9.5	–	–	–	–	–	–	–	–
Cc1ccc(S(=O)(=O)NC(=Nc2ccc(/C=C/C(=O)c3c(O)cccc3OCc3ccccc3)cc2)N(C)c2ccccc2)cc1 [Compound 6c]	4.2 ± 1.2	> 30	9.5 ± 5.3	2.5 ± 0.2	9.9 ± 3.1	4.2 ± 0.5	~ 10 fold	37.4 ± 0.3	11.4 ± 0.4%	27.0 ± 0.7	23.5% and 23.5 ± 1.2 %	not caused by a significant cell cycle arrest in any phase	–	–
Cc1ccc(S(=O)(=O)NC(=Nc2ccc(/C=C/C(=O)c3c(O)cccc3OCc3ccccc3)cc2)N2CCCCC2)cc1 [Compound 6d]	24.6 ± 5.4	> 30	> 30	3.3 ± 0.6	6.6 ± 1.2	28.5 ± 14.3	–	–	–	–	–	–	–	–
Cc1ccc(S(=O)(=O)NC(=Nc2ccc(/C=C/C(=O)c3c(O)cccc3OCc3ccccc3)cc2)N2CCOCC2)cc1 [Compound 6e]	2.3 ± 0.9	14.3 ± 5.7	5.4 ± 2.1	3.2 ± 1.5	3.1 ± 0.5	3.8 ± 1.1	~ 5 fold	36.5 ± 2.3	27% and 27.3 ± 2.0 %	23.6 ± 0.5	11.9% and 11.9 ± 0.2 %	induced an arrest at the G2-M phase	–	–
CCCCCCCCCCCCCCCCCCNC(=Nc1ccc(/C=C/C(=O)c2c(O)cccc2OCc2ccccc2)cc1)NS(=O)(=O)c1ccc(C)cc1 [Compound 6g]	> 30	> 30	> 30	> 30	> 30	> 30	–	–	–	–	–	–	not cytotoxic	–
CC(C)N(/C(=N/c1ccc(/C=C/C(=O)c2c(O)cccc2OCc2ccccc2)cc1)Nc1ccccc1)C(C)C [Compound 6h]	14 ± 6.6	5.2 ± 1	10.6 ± 2.6	4.3 ± 0.5	5.4 ± 0.2	5.2 ± 0.9	–	53.7 ± 0.4	9.2 ± 0.5 %	29.5 ± 0.3	7.2 ± 1.1 %	not caused by a significant cell cycle arrest in any phase	–	five-fold
O=C(/C=C/c1ccc(N=C(Nc2ccccc2)N2CCOCC2)cc1)c1c(O)cccc1OCc1ccccc1 [Compound 6j]	11.7 ± 3.4	5.4 ± 0.8	8.6 ± 1.1	1.8 ± 0.5	4.1 ± 0.5	6.2 ± 1.7	–	51.3 ± 1.1	11.5 ± 0.1%	32.0 ± 0.4	4.7 ± 0.6%	–	–	–
CN1CCN(C(=Nc2ccc(/C=C/C(=O)c3c(O)cccc3OCc3ccccc3)cc2)Nc2ccccc2)CC1 [Compound 6k]	14 ± 5.1	> 30	14 ± 1.1	21.7 ± 6.5	24.8 ± 3.3	11.4 ± 5.5	–	–	–	–	–	–	–	–
COc1cccc2c1C(=O)c1c(O)c3c(c(O)c1C2=O)C[C@@](O)(C(=O)CO)C[C@@H]3O[C@H]1C[C@H](N)[C@H](O)[C@H](C)O1 [Doxorubicin, reference compound]	–	0.3 ± 0.1	0.1	–	–	–	–	–	–	–	–	–	–	–
COc1cc([C@@H]2c3cc4c(cc3[C@@H](O[C@@H]3O[C@@H]5CO[C@@H](C)O[C@H]5[C@H](O)[C@H]3O)[C@H]3COC(=O)[C@H]23)OCO4)cc(OC)c1O [Etoposide, reference compound]	–	9 ± 3	1.8 ± 0.2	0.2 ± 0.1	–	0.6 ± 0.2	–	–	–	–	–	–	–	–
